Measured values reported in PubChem BioAssay (NCI).
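GI50 marks 50% less growth. TGI denotes the concentration required for complete inhibition of growth.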

How the values were obtained:
Test in all cases: DTP human tumour cell line panel, 384-well format
[1] = test system: NCI-H460 NSCLC
[2] = test system: SNB-75 CNS
[3] = test system: A498 renal
[4] = test system: HCT-15 colon
[5] = test system: SF-268 CNS
[6] = test system: DU-145 prostate
[7] = test system: SF-539 CNS
[8] = test system: IGROV1 ovarian
[9] = test system: U251 glioblastoma
[10] = test system: MDA-MB-231 breast
[11] = test system: SK-MEL-5 melanoma
[12] = test system: MCF7 breast
[13] = test system: NCI-H226 lung
[14] = test system: RPMI-8226 leukemia
[15] = test system: CCRF-CEM leukemia
[16] = test system: NCI-H322M lung
[17] = test system: LOX IMVI melanoma
[18] = test system: SN12C renal
[19] = test system: HT29 colon
[20] = test system: TK-10 renal
[21] = test system: HS 578T breast
[22] = test system: OVCAR-4 ovarian
[23] = test system: PC-3 prostate
[24] = test system: HCT-116 colon
[25] = test system: UACC-62 melanoma
[26] = test system: OVCAR-3 ovarian
[27] = test system: M14 melanoma
[28] = test system: SK-OV-3 ovarian
[29] = test system: A549 NSCLC
[30] = test system: SK-MEL-2 melanoma
[31] = test system: HCC-2998 colon
[32] = test system: HOP-62 NSCLC
[33] = test system: MALME-3M melanoma
[34] = test system: MOLT-4 leukemia
[35] = test system: BT-549 breast
[36] = test system: SR leukemia
[37] = test system: SF-295 CNS
[38] = test system: NCI-H23 lung
[39] = test system: HL-60(TB) leukemia
[40] = test system: SK-MEL-28 melanoma
[41] = test system: MDA-MB-468 breast
[42] = test system: T-47D breast
[43] = test system: SW-620 colon
[44] = test system: NCI-H522 lung
[45] = test system: EKVX NSCLC
[46] = test system: HOP-92 NSCLC
[47] = test system: UACC-257 melanoma

Work on `N#Cc1cnc(Nc2cc(NC[C@H]3CNCCO3)c(C(F)(F)F)cn2)cn1` yielded a GI50 [1] of 8.14 µM, a TGI [1] of 21 µM and a GI50 [2] of 14.7 µM. It also gave a TGI [2] of 27.9 µM, a GI50 [3] of 0.234 µM and a TGI [3] of 0.531 µM. The GI50 [4] was 5.16 µM, the TGI [4] was > 65.1 µM and the GI50 [5] was 14.4 µM. For the same compound, the TGI [5] was 30.1 µM, the GI50 [6] was 5.48 µM and the TGI [6] was 19.4 µM. It also gave a GI50 [7] of 0.38 µM, a TGI [7] of 1.18 µM and a GI50 [8] of 9.13 µM. It also gave a TGI [8] of 47.6 µM, a GI50 [9] of 17.4 µM and a TGI [9] of 39.7 µM. The GI50 [10] was 16.8 µM, the TGI [10] was 42.3 µM and the GI50 [11] was 2.97 µM. It also gave a TGI [11] of 16 µM, a GI50 [12] of 0.728 µM and a TGI [12] of 20.7 µM. The GI50 [13] was 20.1 µM, the TGI [13] was 54.1 µM and the GI50 [14] was 1.21 µM. For the same compound, the TGI [14] was 5.28 µM, the GI50 [15] was 0.333 µM and the TGI [15] was 0.976 µM. For the same compound, the GI50 [16] was 9.8 µM, the TGI [16] was 32.4 µM and the GI50 [17] was 14.9 µM. For the same compound, the TGI [17] was 32.6 µM, the GI50 [18] was 18.3 µM and the TGI [18] was 38.5 µM. For the same compound, the GI50 [19] was 20.6 µM, the TGI [19] was > 74.7 µM and the GI50 [20] was 1.14 µM. The TGI [20] was 10.2 µM, the GI50 [21] was 0.337 µM and the TGI [21] was 2.22 µM. It also gave a GI50 [22] of 1.86 µM, a TGI [22] of 34.4 µM and a GI50 [23] of 16.4 µM. For the same compound, the TGI [23] was 40.3 µM, the GI50 [24] was 17.5 µM and the TGI [24] was 47.5 µM. For the same compound, the GI50 [25] was 7.66 µM, the TGI [25] was 21 µM and the GI50 [26] was 9.42 µM. For the same compound, the TGI [26] was 25.4 µM, the GI50 [27] was 0.292 µM and the TGI [27] was 0.785 µM. It also gave a GI50 [28] of 2.33 µM, a TGI [28] of 11 µM and a GI50 [29] of 21.5 µM. For the same compound, the TGI [29] was > 100 µM, the GI50 [30] was 10.8 µM and the TGI [30] was 22.7 µM. It also gave a GI50 [31] of 0.402 µM, a TGI [31] of 3.09 µM and a GI50 [32] of 3.75 µM. The TGI [32] was 16.8 µM, the GI50 [33] was 7.25 µM and the TGI [33] was 22.9 µM. It also gave a GI50 [34] of 0.404 µM, a TGI [34] of 1.34 µM and a GI50 [35] of 0.377 µM. The TGI [35] was 1.71 µM, the GI50 [36] was 0.0572 µM and the TGI [36] was 0.186 µM. The GI50 [37] was 0.946 µM, the TGI [37] was 4.12 µM and the GI50 [38] was 0.508 µM. It also gave a TGI [38] of 12.3 µM, a GI50 [39] of 0.625 µM and a TGI [39] of 1.76 µM. It also gave a GI50 [40] of 18.1 µM, a TGI [40] of 35.6 µM and a GI50 [41] of 13.9 µM. The TGI [41] was 27.2 µM, the GI50 [42] was 25.4 µM and the TGI [42] was 51.3 µM. For the same compound, the GI50 [43] was 16.8 µM, the TGI [43] was 39.4 µM and the GI50 [44] was 13.6 µM. It also gave a TGI [44] of 26.9 µM, a GI50 [45] of 14.5 µM and a TGI [45] of 34 µM. For the same compound, the GI50 [46] was 0.504 µM, the TGI [46] was 9.53 µM and the GI50 [47] was 17.6 µM. The TGI [47] was 31.8 µM.
